Values quoted from earlier work as cited in patent US9050351B2, “Topical compositions designed to maintain or restore the integrity of the mucous membranes” (RICEFARMA S.R.L., priority 2010, dated 2015).

Key:
[1] = as disclosed in WO93/19730

C[N+](C)(C)CCOP(=O)([O-])OC[C@H](O)CO [choline alfoscerate, L-alpha-glycerylphosphorylcholine]
solubility in water and ethanol: highly soluble | incidence of skin irritation, eye irritation and skin sensitisation [1]: low | systemic toxicity [1]: practically devoid | topical tolerability [1]: marked
